Reference: PMC3958260 (2014)

Legend:
[1] = test system: aptamer # 3_19 (DNA, aptamer) ATACCAGCTTATTCAATTAGCCCGGTATTGAGGTCGATCTCTTATCCTATGGCTTGTCCCCCATGGCTCGGTTATATCCAGATAGTAAGTGCAATCT; test: bead fluorescence release assay; details: 100 mM Na+, 5 mM K+, 2 mM Mg2+, 1 mM Ca2+, 20 mM Tris-HCl pH 7.6, 21 °C, 1 mM compound, release from capture oligo iODN2Sp; for binding: below 1 pmol threshold; for amount of eluted aptamer DNA: single concentration
[2] = test system: aptamer # 3_7 (DNA, aptamer) ATACCAGCTTATTCAATTGGTGGTAGGATGGGCTCGATCGAGGTCTTCAGTCGGCTCGGTTTAGTTTATGTTCTCCTGTAGATAGTAAGTGCAATCT; test: bead fluorescence release assay; details: 100 mM Na+, 5 mM K+, 2 mM Mg2+, 1 mM Ca2+; 20 mM Tris-HCl pH 7.6, 21 °C; 1 mM compound; release from capture oligo iODN2Sp; single concentration
[3] = test system: aptamer # 3_7(1-79) (DNA, aptamer) ATACCAGCTTATTCAATTGGTGGTAGGATGGGCTCGATCGAGGTCTTCAGTCGGCTCGGTTTAGTTTATGTTCTCCTGT; test: bead fluorescence release assay; details: 100 mM Na+, 5 mM K+, 2 mM Mg2+, 1 mM Ca2+; 20 mM Tris-HCl pH 7.6, 21 °C; 1 mM compound; release from capture oligo iODN2Sp; single concentration
[4] = test system: aptamer # 11_76 (DNA, aptamer) ATACCAGCTTATTCAATTATGCGGGGATGAGGCTTGATCTGTGGCTCTGATCCATGATCAGTCGTCTTACGTGCGGTCCAGATAGTAAGTGCAATCT; test: bead fluorescence release assay; details: 100 mM Na+, 5 mM K+, 2 mM Mg2+, 1 mM Ca2+; 20 mM Tris-HCl pH 7.6, 21 °C; 1 mM compound; release from capture oligo iODN2Sp; single concentration
[5] = test system: aptamer # 13_82 (DNA, aptamer) ATACCAGCTTATTCAATTCAGGGCGGTATGAGGCTCGATCAAGGTCGGAGCGAGAATTTTTTCGCGGAGTCGGCTGGATCAGATAGTAAGTGCAATCT; test: bead fluorescence release assay; details: 100 mM Na+, 5 mM K+, 2 mM Mg2+, 1 mM Ca2+; 20 mM Tris-HCl pH 7.6, 21 °C; 1 mM compound; release from capture oligo iODN2Sp; single concentration
[6] = test system: aptamer # 13_82(19-80) (DNA, aptamer) CAGGGCGGTATGAGGCTCGATCAAGGTCGGAGCGAGAATTTTTTCGCGGAGTCGGCTGGATC; test: bead fluorescence release assay; details: 100 mM Na+, 5 mM K+, 2 mM Mg2+, 1 mM Ca2+; 20 mM Tris-HCl pH 7.6, 21 °C; 1 mM compound; release from capture oligo iODN2Sp; single concentration
[7] = test system: # 3_19(1-79) (DNA, aptamer) ATACCAGCTTATTCAATTAGCCCGGTATTGAGGTCGATCTCTTATCCTATGGCTTGTCCCCCATGGCTCGGTTATATCC; test: MTP fluorescence release assay; details: 100 mM Na+, 5 mM K+, 2 mM Mg2+, 1 mM Ca2+; 20 mM Tris-HCl pH 7.6, 21 °C; release from capture oligo iODN2Sp; elution not above background
[8] = test system: aptamer # 3_19 (DNA, aptamer) ATACCAGCTTATTCAATTAGCCCGGTATTGAGGTCGATCTCTTATCCTATGGCTTGTCCCCCATGGCTCGGTTATATCCAGATAGTAAGTGCAATCT; test: fluorescence (bead or MTP assay) or SPR, capture-oligo release; details: 100 mM Na+, 5 mM K+, 2 mM Mg2+, 1 mM Ca2+; 20 mM Tris-HCl pH 7.6; release from capture oligo iODN2Sp; micromolar range; apparent
[9] = test system: aptamer # 3_7(1-79) (DNA, aptamer) ATACCAGCTTATTCAATTGGTGGTAGGATGGGCTCGATCGAGGTCTTCAGTCGGCTCGGTTTAGTTTATGTTCTCCTGT; test: as above; details: 100 mM Na+, 5 mM K+, 2 mM Mg2+, 1 mM Ca2+; 20 mM Tris-HCl pH 7.6; release from capture oligo iODN2Sp; micromolar range; apparent
[10] = test system: aptamer # 11_76 (DNA, aptamer) ATACCAGCTTATTCAATTATGCGGGGATGAGGCTTGATCTGTGGCTCTGATCCATGATCAGTCGTCTTACGTGCGGTCCAGATAGTAAGTGCAATCT; test: as above; details: 100 mM Na+, 5 mM K+, 2 mM Mg2+, 1 mM Ca2+; 20 mM Tris-HCl pH 7.6; release from capture oligo iODN2Sp; micromolar range; apparent
[11] = test system: aptamer # 13_82 (DNA, aptamer) ATACCAGCTTATTCAATTCAGGGCGGTATGAGGCTCGATCAAGGTCGGAGCGAGAATTTTTTCGCGGAGTCGGCTGGATCAGATAGTAAGTGCAATCT; test: as above; details: 100 mM Na+, 5 mM K+, 2 mM Mg2+, 1 mM Ca2+; 20 mM Tris-HCl pH 7.6; release from capture oligo iODN2Sp; micromolar range; apparent
[12] = test system: aptamer # 13_82(19-80) (DNA, aptamer) CAGGGCGGTATGAGGCTCGATCAAGGTCGGAGCGAGAATTTTTTCGCGGAGTCGGCTGGATC; test: as above; details: 100 mM Na+, 5 mM K+, 2 mM Mg2+, 1 mM Ca2+; 20 mM Tris-HCl pH 7.6; release from capture oligo iODN2Sp; micromolar range; apparent
[13] = test system: aptamer # 13_82(19-80) (DNA, aptamer) CAGGGCGGTATGAGGCTCGATCAAGGTCGGAGCGAGAATTTTTTCGCGGAGTCGGCTGGATC; test: MTP fluorescence release assay; details: 100 mM Na+, 5 mM K+, 2 mM Mg2+, 1 mM Ca2+; 20 mM Tris-HCl pH 7.6, 21 °C; release from capture oligo iODN2Sp; elution not above background

| SMILES | binding [1] | amount of eluted aptamer DNA [2] [pmol] | amount of eluted aptamer DNA [3] [pmol] | amount of eluted aptamer DNA [4] [pmol] | amount of eluted aptamer DNA [5] [pmol] | amount of eluted aptamer DNA [6] [pmol] | binding [7] | amount of eluted aptamer DNA [1] [pmol] | dissociation constant [8] [µM] | dissociation constant [9] [µM] | dissociation constant [10] [µM] | dissociation constant [11] [µM] | dissociation constant [12] [µM] | binding [13] |
| --- | --- | --- | --- | --- | --- | --- | --- | --- | --- | --- | --- | --- | --- | --- |
| NC[C@H]1O[C@H](O[C@H]2[C@H](O)[C@@H](O[C@H]3O[C@H](CO)[C@@H](O)[C@H](N)[C@H]3O)[C@H](N)C[C@@H]2N)[C@H](N)[C@@H](O)[C@@H]1O | no | 4.42 | 8.04 | 5.21 | 7.22 | 3.09 |  |  |  |  |  |  |  |  |
| NC[C@H]1O[C@H](O[C@H]2[C@H](O)[C@@H](O[C@H]3O[C@H](CO)[C@@H](O)[C@H](N)[C@H]3O)[C@H](N)C[C@@H]2N)[C@H](O)[C@@H](O)[C@@H]1O |  | 4.62 | 10.44 | 5.02 | 6.85 | 6.87 | no | 3.02 | 3.9 | 146 | 9.6 | 5.1 | 5.4 |  |
| CCN[C@@H]1C[C@H](N)[C@@H](O[C@H]2OC(CN)=CC[C@H]2N)[C@H](O)[C@H]1O[C@H]1OC[C@](C)(O)[C@H](NC)[C@H]1O |  | 1.03 |  | 1.03 | 1.01 |  |  |  |  |  |  |  |  |  |
| CN[C@@H]1[C@@H](O[C@H]2O[C@H](CO)[C@@H](N)[C@H](O)[C@H]2O)O[C@H]2C[C@@H](N)[C@@H](O[C@H]3[C@H](O)[C@@H](O)[C@H](N)C[C@@H]3N)O[C@@H]2[C@@H]1O |  | 3.04 | 1.68 | 3.04 | 3.40 |  |  | 2.27 |  |  |  |  |  |  |
| NC[C@@H]1O[C@H](O[C@H]2[C@@H](O)[C@H](O[C@@H]3[C@@H](O)[C@H](N)C[C@H](N)[C@H]3O[C@H]3O[C@H](CO)[C@@H](O)[C@H](O)[C@H]3N)O[C@@H]2CO)[C@H](N)[C@@H](O)[C@@H]1O |  |  |  |  |  |  |  |  |  |  |  |  |  | no |
| NC[C@H]1O[C@H](O[C@H]2[C@H](O)[C@@H](O[C@H]3O[C@H](CO)[C@@H](O)[C@H](N)[C@H]3O)[C@H](N)C[C@@H]2N)[C@H](N)C[C@@H]1O | no |  | 1.91 | 4.03 | 2.78 | 1.13 |  |  |  |  |  |  |  |  |
